Measured values taken from patent US8772500B2, “TRPV3 modulators” (AbbVie Inc., priority 2011, dated 2014).
Like-named read-outs stand apart in the source and are kept apart here. Values belong to the molecule of their own block, whether it stands above or below them.

Legend:
[1] = In vitro rat microsomal stability assay; assay type: in vitro ADME, rat (Sprague-Dawley)
How it was run: (§1)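 Rat (Sprague-Dawley) and human liver microsomes were incubated with test compound and NADPH at 37 °C. Time-zero samples also received NADPH.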

CD1 mice = experiment: In vivo chronic constriction injury (CCI) model of neuropathic pain, mechanical allodynia (von Frey); conditions: 100 mg/kg oral dose, 1 hour after dosing, average of eight mice; vehicle 0%, control 100%
Procedure: Test compounds were evaluated for analgesic effect in an in vivo chronic constriction injury (CCI) model of neuropathic pain. CD1 mice (Charles River) were used for these studies. Prior to testing (2-4 weeks) animals underwent a surgical procedure consisting of approximately 3 loose ligatures around the sciatic nerve. Following sterilization procedures, under isofluorane anesthetic, a 1.5 cm incision was made dorsal to the pelvis. The biceps femoris and gluteous superficialis (right side) were separated and the sciatic nerve exposed, isolated, and 2-4 loose ligatures (5-0 chromic gut) with less than 1 mm spacing were placed around it. Following hemostasis, the wound was sutured (layer of muscle closed with 5-0 nylon suture, and the wound closed with surgical staples) and coated with iodine. The mice were allowed to recover on a warming plate and were returned to their home cages (soft bedding) when able to walk on their own.
Two to four weeks after the surgery, test compound was administered orally (PO) in these mice, and mechanical allodynia was evaluated 1 hour after oral dosing where the threshold to response was assessed using calibrated von Frey monofilaments. The von Frey monofilaments were applied to the hind paw at increasing forces until the animal responded by lifting its paw. […]
Each test compound was evaluated in eight different mice. […]

[2] = In vitro human microsomal stability assay; assay type: in vitro ADME
How it was run: as §1

human TRPV3 = molecular target: T1, human TRPV3 (Homo sapiens, UniProt Q8NET8); experiment: In vitro antagonism of recombinant human TRPV3 activation (FLIPR Tetra calcium assay, 2-APB as agonist); assay type: cell-based; conditions: HEK293 cells stably expressing human TRPV3, 2-APB 80 μM
T1 construct: expressed in transfected cells
T1 sequence (Q8NET8 1-790): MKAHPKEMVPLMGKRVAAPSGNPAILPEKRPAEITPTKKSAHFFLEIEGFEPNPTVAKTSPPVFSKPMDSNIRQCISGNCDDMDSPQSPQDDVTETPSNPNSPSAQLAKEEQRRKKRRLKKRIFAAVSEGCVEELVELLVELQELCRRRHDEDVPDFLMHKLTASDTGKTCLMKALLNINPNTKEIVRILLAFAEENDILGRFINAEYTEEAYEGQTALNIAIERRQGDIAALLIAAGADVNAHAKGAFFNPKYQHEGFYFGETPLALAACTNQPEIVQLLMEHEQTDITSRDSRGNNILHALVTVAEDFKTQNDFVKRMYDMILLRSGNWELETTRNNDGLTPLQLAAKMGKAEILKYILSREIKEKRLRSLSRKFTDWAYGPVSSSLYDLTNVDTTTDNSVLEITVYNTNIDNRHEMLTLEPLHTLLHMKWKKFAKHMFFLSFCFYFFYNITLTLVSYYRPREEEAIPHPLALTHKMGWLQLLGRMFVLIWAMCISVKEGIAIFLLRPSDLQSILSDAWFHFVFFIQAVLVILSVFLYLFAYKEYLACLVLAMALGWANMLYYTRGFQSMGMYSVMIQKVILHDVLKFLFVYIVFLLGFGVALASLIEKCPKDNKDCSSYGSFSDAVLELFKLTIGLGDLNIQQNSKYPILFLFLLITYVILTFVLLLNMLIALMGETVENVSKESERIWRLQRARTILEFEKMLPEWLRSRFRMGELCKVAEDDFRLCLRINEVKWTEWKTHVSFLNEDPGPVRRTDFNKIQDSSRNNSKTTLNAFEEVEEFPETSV
How it was run: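 HEK293 cells stably expressing human TRPV3, loaded with Calcium-4 dye for 90-120 min; compound added 3 min before 2-APB at 80 μM (its EC80). Fluorescence (max minus min) over 10 min expressed as % of maximal 2-APB response without antagonist; IC50 mostly averaged from n≧2 runs.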

[3] = 0.5 μM substrate, 0.25 mg/mL microsomal protein, pH 7.4, 37° C., NADPH, 30 minutes
[4] = Sprague-Dawley, rat, 0.5 h, 0.5 μM, pH 7.4
[5] = range class, read-out: IC50 (reported range)

Molecule: C[C@]1(O)C[C@](c2cc(C(F)(F)F)ccn2)([C@H](O)c2ccccn2)C1 (relative stereo) [Example 285, cis-3-[(S)-hydroxy(pyridin-2-yl)methyl]-1-methyl-3-[4-(trifluoromethyl)-pyridin-2-yl]cyclobutanol]
RAT […] (% REMAINING AFTER 30 MINUTES) [1, 3]: 69%
% EFFECT (CD1 mice): 59%
HUMAN […] (% REMAINING AFTER 30 MINUTES) [2, 3]: 83%

Molecule: OC(c1ccccn1)C1(C2CCCOC2)CCC1 (stereo not shown) [Example 281, pyridin-2-yl[1-(tetrahydro-2H-pyran-3-yl)cyclobutyl]methanol]
RAT MICROSOMAL STABILITY (% REMAINING AFTER 30 MINUTES) [1, 4]: 0.054%
IC50 (human TRPV3; [5]): 5.1 to 20 µM
HUMAN MICROSOMAL STABILITY (% REMAINING AFTER 30 MINUTES) ([2]; human, 0.5 h, 0.5 μM, pH 7.4): >85%

Molecule: OC1CC(c2cc(C(F)(F)F)ccn2)(C(O)c2ccccn2)C1 [Example 282, cis-3-[(S)-hydroxy(pyridin-2-yl)methyl]-3-[4-(trifluoromethyl)pyridin-2-yl]-cyclobutanol]
RAT MICROSOMAL STABILITY (% REMAINING AFTER 30 MINUTES) [1, 4]: >85%
IC50 (human TRPV3; [5]): 0.501 to 1 µM
HUMAN MICROSOMAL STABILITY (% REMAINING AFTER 30 MINUTES) ([2]; human, 0.5 h, 0.5 μM, pH 7.4): >85%

Molecule: OC1CC(c2cc(C(F)(F)F)ccn2)(C(O)c2ccccn2)C1 [Example 283, trans-3-[(S)-hydroxy(pyridin-2-yl)methyl]-3-[4-(trifluoromethyl)pyridin-2-yl]cyclobutanol]
RAT MICROSOMAL STABILITY (% REMAINING AFTER 30 MINUTES) [1, 4]: >85%
IC50 (human TRPV3; [5]): 0.501 to 1 µM
HUMAN MICROSOMAL STABILITY (% REMAINING AFTER 30 MINUTES) ([2]; human, 0.5 h, 0.5 μM, pH 7.4): >85%

Molecule: CC(=O)O[C@H](c1ccccn1)C1(c2ccc(OC(F)(F)F)cc2)CCC1 [Example 288, (S)-pyridin-2-yl{1-[4-(trifluoromethoxy)phenyl]cyclobutyl}methyl acetate]
RAT MICROSOMAL STABILITY (% REMAINING AFTER 30 MINUTES) [1, 4]: <0.01%
IC50 (human TRPV3; [5]): 5.1 to 20 µM
HUMAN MICROSOMAL STABILITY (% REMAINING AFTER 30 MINUTES) ([2]; human, 0.5 h, 0.5 μM, pH 7.4): <0.01%

Molecule: Cc1cc(C(F)(F)F)cc(C2([C@@H](O)c3ccccn3)CC(=O)C2)n1 [Example 291, 3-[(R)-hydroxy(pyridin-2-yl)methyl]-3-[6-methyl-4-(trifluoromethyl)pyridin-2-yl]cyclobutanone]
RAT MICROSOMAL STABILITY (% REMAINING AFTER 30 MINUTES) [1, 4]: 53%
IC50 (human TRPV3; [5]): 5.1 to 20 µM
HUMAN MICROSOMAL STABILITY (% REMAINING AFTER 30 MINUTES) ([2]; human, 0.5 h, 0.5 μM, pH 7.4): >85%

Molecule: OC(c1ccccn1)C1(c2nc3ccc(Cl)cc3s2)CCC1 (stereo not shown) [Example 292, [1-(6-chloro-1,3-benzothiazol-2-yl)cyclobutyl](pyridin-2-yl)methanol]
RAT MICROSOMAL STABILITY (% REMAINING AFTER 30 MINUTES) [1, 4]: 5.4%
IC50 (human TRPV3; [5]): 0.501 to 1 µM
HUMAN MICROSOMAL STABILITY (% REMAINING AFTER 30 MINUTES) ([2]; human, 0.5 h, 0.5 μM, pH 7.4): 19%

Molecule: OC(c1ccccn1)C1(c2nc3ccc(F)cc3s2)CCC1 (stereo not shown) [Example 300, [1-(6-fluoro-1,3-benzothiazol-2-yl)cyclobutyl](pyridin-2-yl)methanol]
RAT MICROSOMAL STABILITY (% REMAINING AFTER 30 MINUTES) [1, 4]: 0.020%
IC50 (human TRPV3; [5]): 1.1 to 5 µM
HUMAN MICROSOMAL STABILITY (% REMAINING AFTER 30 MINUTES) ([2]; human, 0.5 h, 0.5 μM, pH 7.4): 35%

Molecule: OC(c1ccccn1)C1(c2nc3ccc(Cl)cc3o2)CCC1 (stereo not shown) [Example 301, [1-(6-chloro-1,3-benzoxazol-2-yl)cyclobutyl](pyridin-2-yl)methanol]
RAT MICROSOMAL STABILITY (% REMAINING AFTER 30 MINUTES) [1, 4]: 22%
IC50 (human TRPV3; [5]): 5.1 to 20 µM
HUMAN MICROSOMAL STABILITY (% REMAINING AFTER 30 MINUTES) ([2]; human, 0.5 h, 0.5 μM, pH 7.4): 57%

Molecule: pyridin-2-yl{1-[5-(trifluoromethyl)pyridin-3-yl]cyclobutyl}methanol [Example 110]
RAT MICROSOMAL STABILITY (% REMAINING AFTER 30 MINUTES) [1, 3]: 2.8%
IC50 (human TRPV3; mostly average of n≧2, read-out: IC50 (actual measured value, shown parenthetically)): 0.5 µM
IC50 (human TRPV3; [5]): 0.05 to 0.5 µM
HUMAN MICROSOMAL STABILITY (% REMAINING AFTER 30 MINUTES) [2, 3]: 8.0%

Now from value to molecule:

RAT MICROSOMAL STABILITY (% REMAINING AFTER 30 MINUTES) [1, 4]: 32%
IC50 (human TRPV3; [5]): 0.501 to 1 µM
HUMAN MICROSOMAL STABILITY (% REMAINING AFTER 30 MINUTES) ([2]; human, 0.5 h, 0.5 μM, pH 7.4): 80%
Molecule: OC1CC(c2cncc(C(F)(F)F)c2)(C(O)c2ccccn2)C1 [Example 303, cis-3-[(S)-hydroxy(pyridin-2-yl)methyl]-3-[5-(trifluoromethyl)pyridin-3-yl]-cyclobutanol]

RAT MICROSOMAL STABILITY (% REMAINING AFTER 30 MINUTES) [1, 4]: 44%
IC50 (human TRPV3; [5]): 0.05 to 0.5 µM
HUMAN MICROSOMAL STABILITY (% REMAINING AFTER 30 MINUTES) ([2]; human, 0.5 h, 0.5 μM, pH 7.4): >85%
Molecule: OC1CC(c2cncc(C(F)(F)F)c2)(C(O)c2ccccn2)C1 [Example 304, trans-3-[(S)-hydroxy(pyridin-2-yl)methyl]-3-[5-(trifluoromethyl)pyridin-3-yl]cyclobutanol]

RAT MICROSOMAL STABILITY (% REMAINING AFTER 30 MINUTES) [1, 4]: 49%
IC50 (human TRPV3; [5]): 0.05 to 0.5 µM
HUMAN MICROSOMAL STABILITY (% REMAINING AFTER 30 MINUTES) ([2]; human, 0.5 h, 0.5 μM, pH 7.4): 63%
Molecule: OC1CC(c2ccnc(C(F)(F)F)c2)(C(O)c2ccccn2)C1 [Example 305, cis-3-[(S)-hydroxy(pyridin-2-yl)methyl]-3-[2-(trifluoromethyl)pyridin-4-yl]-cyclobutanol]

RAT MICROSOMAL STABILITY (% REMAINING AFTER 30 MINUTES) [1, 4]: >85%
IC50 (human TRPV3; [5]): 0.05 to 0.5 µM
HUMAN MICROSOMAL STABILITY (% REMAINING AFTER 30 MINUTES) ([2]; human, 0.5 h, 0.5 μM, pH 7.4): >85%
Molecule: OC1CC(c2ccnc(C(F)(F)F)c2)(C(O)c2ccccn2)C1 [Example 306, trans-3-[(S)-hydroxy(pyridin-2-yl)methyl]-3-[2-(trifluoromethyl)pyridin-4-yl]cyclobutanol]

RAT MICROSOMAL STABILITY (% REMAINING AFTER 30 MINUTES) [1, 4]: >85%
IC50 (human TRPV3; [5]): 5.1 to 20 µM
HUMAN MICROSOMAL STABILITY (% REMAINING AFTER 30 MINUTES) ([2]; human, 0.5 h, 0.5 μM, pH 7.4): 73%
Molecule: CC1(O)CC(c2ccnc(C(F)(F)F)c2)(C(O)c2ccccn2)C1 [Example 307, trans-3-[(S)-hydroxy(pyridin-2-yl)methyl]-1-methyl-3-[2-(trifluoromethyl)-pyridin-4-yl]cyclobutanol]

RAT MICROSOMAL STABILITY (% REMAINING AFTER 30 MINUTES) [1, 4]: 13%
IC50 (human TRPV3; [5]): 0.501 to 1 µM
HUMAN MICROSOMAL STABILITY (% REMAINING AFTER 30 MINUTES) ([2]; human, 0.5 h, 0.5 μM, pH 7.4): 41%
Molecule: CC1(O)CC(c2cncc(C(F)(F)F)c2)(C(O)c2ccccn2)C1 [Example 308, cis-3-[(S)-hydroxy(pyridin-2-yl)methyl]-1-methyl-3-[5-(trifluoromethyl)-pyridin-3-yl]cyclobutanol]

RAT MICROSOMAL STABILITY (% REMAINING AFTER 30 MINUTES) [1, 4]: >85%
IC50 (human TRPV3; [5]): 1.1 to 5 µM
HUMAN MICROSOMAL STABILITY (% REMAINING AFTER 30 MINUTES) ([2]; human, 0.5 h, 0.5 μM, pH 7.4): >85%
Molecule: OC1CC(c2ccc(Cl)c(Cl)c2)(C(O)c2ncccn2)C1 [Example 312, (trans)-3-(3,4-dichlorophenyl)-3-((S)-hydroxy(pyrimidin-2-yl)methyl)-cyclobutanol]
